Results as given in patent US6599896B1 (Les Laboratoires Servier, priority 1999, dated 2003).

Columns and labels:
mitochondrial genome = assay: In vivo expression of genes implicated in oxidative stress (RT-PCR, amygdala); conditions: rat, 15 mg/kg i.p. for 21 days
Description: After sacrifice of the animals and removal of the brains, the total RNA of the amygdala region is extracted and then subjected to an RT-PCR test. In brief, reverse transcription is performed on the extracted RNA, the transcription products are then amplified by chain polymerisation (PCR) and then subjected to high-resolution polyacrylamide gel electrophoresis. The bands of interest are removed from the gel, re-amplified, sequenced and analysed.

AMPA/kainate receptors = assay: Patch clamp: current induced by kainate in telencephalic cells in primary culture; format: cell-based, rat
Description: Telencephalic cells of 16.5 day-old Wistar rat fetuses were cultured for 12 days. Patch clamp experiments were then conducted at ambient temperature in the following medium: 5 mM KCl, 140 mM NaCl, 10 mM Hepes, 2 mM MgCl2, 2 mM CaCl2 and 10 mM D-glucose (pH=7.3), and the micropipettes were filled with 140 mM KCl, 4 mM NaCl, 10 mM Hepes, 5 mM EGTA and 0.5 mM CaCl2 (pH=7.2).
That effect is measured by the patch clamp technique.

astrocytes in culture = assay: ATP levels associated with hypoxia in astrocytes maintained in culture; format: cell-based, rat; conditions: hypoxia 24 hours
Description: Cultures of astrocytes are obtained using new-born rats according to the technique described by Booher J. and Sensenbrenner M. (Neurobiology 2, 97-105, […]). They are used three weeks after being placed in culture. […] The concentration of ATP is determined by luminescence and expressed in picomoles of ATP per mg of cellular proteins. The experiments are conducted in triplicate.

motoneurons = conditions: Duong et al., Br. J. Pharmacol., 128, 1385-1392; cited from earlier work
[1] = test system: cortical neurons in culture; assay: In vitro neurotoxicity caused by glutamate in cortical cells (LDH activity); format: cell-based, rat; conditions: 20 μM; 1 mM glutamate 15 minutes
Description: (§1) Cortical cells are extracted from Sprague-Dawley rat foetuses and cultured in MEM (minimum essential medium) containing 5% horse serum and 5% calf foetus serum.
Just before treatment with glutamate, the culture medium is replaced by 300 μl of saline solution buffered with HEPES. The cells are incubated for 15 minutes together with 1 mM glutamate. The culture media are then replaced by 200 μl of MEM without serum and the cells are incubated at 37° C. for 24 hours. After morphological examination of the cells, the culture supernatants are collected and the lactate dehydrogenase (LDH) activity therein is measured.

[2] = test system: cortical neurons in culture; assay: In vitro neurotoxicity caused by hypoxia in cortical cells (LDH activity); format: cell-based, rat; conditions: 20 μM; 3 hours hypoxia, LDH after 24 hours
Description: as §1
After morphological examination of the cells, the culture supernatants are collected and the lactate dehydrogenase (LDH) activity therein is measured.

[3] = test system: purified embryonic motoneurons; assay: Death of motoneurons deprived of growth factors (survival count); format: cell-based, rat; conditions: BDNF 1 ng/ml; 2.5 days of culture
Description: Pregnant Sprague-Dawley rats are sacrificed on the 14th day of embryo life. The motoneurons of the embryos are purified according to the method published by C.
The motoneurons are seeded a density of approximately 1000 cells per 16-mm well and are cultured in Neurobasal, supplemented by B27 and horse serum. […] The surviving motoneurons are counted directly.
After 2.5 days of culture, motoneurons are counted in 2 areas of each of the 4 wells. Absolute value per area are presented (mean+/−s.e.m., n=8).

CN1c2ccccc2C(NCCCCCCC(=O)O)c2ccc(Cl)cc2S1(=O)=O (stereo not drawn) [tianeptine]
expression of mitochondrial genes in the amygdala (mitochondrial genome): overexpression of the mitochondrial genes of NADH ubiquinone reductase (sub-units 2 and 5) and also of genes coding for 16S rRNA, leu-tRNA and val-tRNA | effect on the current entering the cells, compound on its own (direct agonism) (AMPA/kainate receptors; 10 μM, without kainate): no effect | effect on the current induced by kainate (AMPA/kainate receptors; 4, 10 and 25 μM, kainate 250 μM, FIG. 1): increases the current induced by kainate | percentage protection of astrocytes (ATP level) (astrocytes in culture; 10 μM (maximal)): 68% | protection of astrocytes (ATP level) (astrocytes in culture; 0.1-1-10 μM, FIG. 4): protects astrocytes in culture in a dose-dependent manner

Cl.FC(F)(F)c1cccc(C2=CCN(CCc3ccc4ccccc4c3)CC2)c1 [SR57746A]
activity on the survival of motoneurons in vitro (motoneurons): active

C[C@]12N[C@H](Cc3ccccc31)c1ccccc12 [MK-801]
protection against toxicity caused by glutamate (LDH activity) [1]: total protection | protection against the effects of hypoxia (LDH activity) [2]: 86.3%

B1: Brain-Derived Neurotrophic Factor (protein, UniProt P23560 19-247, looked up)
Neurotrophic factor BDNF …: APMKEANIRGQGGLAYPGVRTHGTLESVNGPKAGSRGLTSLADTFEHVIEELLDEDQKVRPNEENNKDADLYTSRVMLSSQVPLEPPLLFLLEEYKNYLDAANMSMRVRRHSDPARRGELSVCDSISEWVTAADKKTAVDMSGGTVTVLEKVPVSKGQLKQYFYETKCNPMGYTKEGCRGIDKRHWNSQCRTTQSYVRALTMDSKKRIGWRFIRIDTSCVCTLTIKRGR
notes: growth factor, 1 ng/ml, positive control for motoneuron survival
survival of motoneurons [3]: protect the motoneurons from cell death
